{"source": "patent US12545695B2", "about": "“Compounds for inhibiting neovascularization factors and use thereof” (UNIST (ULSAN NATIONAL INSTITUTE OF SCIENCE AND TECHNOLOGY), priority 2019, dated 2026)", "key": {"TRAP-1 [1]": {"tested_on": "TRAP-1", "assay": "Pull-down assay: client proteins SIRT3 and SDHB on GST-TRAP1 beads", "type": "binding", "settings": "TRAP1-bead form with isolated mitochondria and drug, 4° C., 18 hours (FIG. 14)", "procedure": "A pull-down assay was performed to confirm whether SMx competitively binds to SIRT3 and SDHB, which are known as client proteins of TRAP-1. TRAP1 protein in the GST fusion form was purified from bacteria cells and then bound to glutathione beads to make a TRAP1-bead form, and then the TRAP1-bead form was bound to the mitochondria isolated from mammalian cells (Thermo Scientific mitochondria isolation kit) with a drug at 4° C. for 18 hours. The cells were treated with SMx, and gamitrinib and PU-H71, which are previously developed N-terminal domain inhibitors of hsp90s, as the drugs, according to the concentrations shown in the drawing. […] This is strong evidence that SMx has the ability to bind to the middle domain of TRAP-1."}, "[2]": {"tested_on": "neovascularization factors", "assay": "Expression of neovascularization factors in Muller cells (western blot / PCR RNA level analysis)", "type": "cell-based", "settings": "MIO-M1, 1% O2 (FIG. 9)", "procedure": "Muller cells were treated with gamitrinib and SMX at 3 uM and cultured in a 1% O2 environment for 8 hours, and then total RNA was extracted (Qiagen, total RNA extraction kit). cDNA was synthesized from 1 ug of total RNA (NEB, cDNA synthesis kit). After angiogenic factors were synthesized using PCR, the RNA level was analyzed by agarose electrophoresis.\nMuller cells (MIO-M1) were cultured at 37° C. and 5% CO2, and DMEM-low glucose (Sigma) including 10% fetal bovine serum and 1% penicillin & streptomycin was used as the medium. A hypoxic chamber was maintained at 37° C., 5% CO2 and 1% O2. Muller cells (MIO-M1) were seeded in the number of 4×10^5 on a 60-millimeter plate and cultured in 3 ml of the medium for 24 hours. The next day, the cells were treated with SMx, a mitochondrial heat shock protein 90 (TRAP1) inhibitor, and gamitrinib and PU-H71, which are previously developed N-terminal domain inhibitors of hsp90s, according to the concentrations shown in the drawing, and cultured in a hypoxic chamber for 24 hours. Whole cell lysates were made from the cultured cells, electrophoresed, transferred to a PVDF membrane, and then treated with a primary antibody at 4° C. for 18 hours. The next day, the whole cell lysates were treated with a secondary antibody for 1 hour and protein expression was analyzed using a western blotting detection reagent."}, "HIF-1α": {"tested_on": "HIF-1α", "assay": "Western blot of HIF-1α in ARPE-19 cells under hypoxia", "type": "cell-based, Human", "settings": "ARPE-19, 1 μM, 1% oxygen, 6 hours (FIG. 26)", "procedure": "Human retinal pigmented epithelium ARPE-19 cells were seeded in the number of 3×10^5 on a 60-millimeter plate, and cultured at 37° C. and 5% CO2, and DMEM/F-12 including 10% fetal bovine serum and 1% penicillin & streptomycin was used as the medium for 2 days. Two days later, the cells were treated with DMSO (0.5%), SMx, SB-U005, SB-U009, SB-U011 and SB-U012 at 1 μM and cultured under 1% oxygen conditions in a hypoxia chamber for 6 hours, and then a western blot experiment was performed.\nAfter the cell culture experiment was completed, the cell culture solution was removed, the cells was washed once with cold PBS, and a RIPA solution (50 mM Tris-HCl pH 7.4, 150 mM NaCl, 0.25% Na-deoxycholate, 1% NP-40) was added thereto to harvest cells using a cell scraper. After the cells were sufficiently lysed, a 6× sample buffer was mixed with a cell suspension obtained by low-temperature centrifugation, the resulting mixture was boiled at 95° C. for 5 minutes, and then 12% SDS-PAGE was performed. […]\nThereafter, the membrane was washed twice with TBS-T (Tris-buffered saline+Tween-20), and then reacted with a secondary antibody (diluted at 1:5,000) at room temperature for 1 hour. After the membrane was washed twice with TBS-T, changes in protein expression level were measured by a Chemidoc system (GE, LAS 4000) using a Clarity Western ECL substrate (Bio-Rad)."}, "HIF1-α": {"tested_on": "HIF1-α", "assay": "Drug activity in MIO-M1-HRE/GFP cell line under hypoxia (GFP fluorescence)", "type": "cell-based", "settings": "1% O2, 24 hours (FIG. 25)", "procedure": "After MIO-M1 Muller cells were transfected with a 5HRE/GFP plasmid (Addgene #46926) (jetPrime kit), plasmid-transfected cells were selected using 1 mg/ml G418 (neomycin) which is a selection marker. A stable cell line was manufactured by selecting cells that were growing in the form of a colony from single cells. The manufactured stable MIO-M1-HRE/GFP cell line was aliquoted into 96 wells and treated with a drug at each concentration the next day. After the cell line was exposed to a hypoxic environment (1% O2) for 24 hours, GFP (Ex/Em: 488/507) fluorescence signals were measured by a SYNERGY NEO microplate reader (BioTek Instrument). As a negative control, DMSO, which is a solvent in which a drug was dissolved, was used, and calculation was performed based on the negative control as 100%."}, "TRAP-1 [3]": {"tested_on": "TRAP-1", "assay": "ATPase activity assay (PiColorLock Gold Phosphate Detection Kit)", "type": "biochemical", "settings": "TRAP1 0.5 μM, 0.2 mM ATP, inhibitor 0.520 μM preincubated 30 minutes (FIG. 16)", "procedure": "ATPase activity was measured by measuring the release of inorganic phosphates through the PiColorLock Gold Phosphate Detection Kit (Innova Biosciences) according to the manufacturer's manual. TRAP1 (0.5 μM) was cultured with 0.2 mM ATP in 100 mM Tris, 20 mM KCl, and 6 mM MgCl2 under the conditions of pH 7.0 and 37° C. for 3 hours. Thereafter, the PiColorLock Gold reagent and an accelerator (100:1) were added to a 100 μL ATP hydrolyzate sample. After culturing at 25° C. for 5 minutes, the change in color was stopped by adding 10 μL of a stop solution thereto, and the absorbance at 620 nm was measured by SYNERGY NEO microplate reader (BioTek Instruments).\nFor inhibitory ability analysis, TRAP1 was cultured with a predetermined concentration (0.520 μM) of inhibitor for 30 minutes and then stirred with ATP. Absorbance values were normalized to a DMSO control and data was expressed as % ATPase activity.\nFor inhibitory ability analysis, TRAP-1 was cultured with a predetermined concentration (0.520 μM) of inhibitor for 30 minutes and then stirred with ATP. Absorbance values were normalized to a DMSO control and data was expressed as % ATPase activity."}}}
{"smiles": "COC1=C(OC)C(=O)C(CCCCCCCCCC[P+](c2ccccc2)(c2ccccc2)c2ccccc2)=C(C)C1=O", "note": "[SMx]", "values": [{"measurement": "binding of the client protein (SIRT3, SDHB) to TRAP-1", "setting": "TRAP-1 [1]", "result": "significantly reduced"}, {"measurement": "expression of well-known neovascularization factors", "setting": "[2]", "result": "suppressed"}, {"measurement": "suppression of HIF-1α", "setting": "HIF-1α", "result": "effectively suppressed"}, {"measurement": "suppression of neovascularization factor HIF1-α (HRE/GFP signal)", "setting": "HIF1-α", "result": "suppressed"}, {"measurement": "ATPase activity of TRAP-1", "setting": "TRAP-1 [3]", "result": "significantly increased according to the concentration"}]}
